Assay results taken from article PMC6961122 (Bioorganic & Medicinal Chemistry, 2020).
Like-named read-outs stand apart in the source and are kept apart here.

Tests used:
[1] = tested on: U87 cells; assay: Cell viability assay (PrestoBlue, 5 d) in U87 glioma cells; type: cell-based; details: library screen, 5 d treatment, mean of three independent experiments in triplicates, read-out: EC50 U87 ± SEM
Procedure: (§1) The antiproliferative activity of a total of 100 compounds was tested against U87 and T98 glioma cell lines, using TMZ[3] and the Topoisomerase I inhibitor SN-38[18] as positive controls. Cells were treated with the library members for 5 d at three different concentrations (3, 30 and 300 µM) and cell viability determined using the PrestoBlue reagent. Half-maximal effective concentration (EC50) values were calculated from the corresponding dose-response curves and plotted in Fig. 2a as a heatmap to facilitate data analysis, with black meaning no activity and dark to light green to yellow transitions indicating decreasing EC50 values (=increasing potencies). Table 1 of the Suppl. Data contains the corresponding EC50 values ± SEM.
(§2) INK128 and SN-38 were used as positive controls. […] Structurally, these derivatives differed in the size of the alkyl group of the N1 position and the presence or absence of an oxygen atom in that moiety (see Suppl. Data).
(§3) U87 and T98 cells (ATCC) were cultured in DMEM (Gibco), supplemented with 10% (v/v) FBS (Gibco) and 2 mM L-Glutamine (Gibco) in a standard incubator (95% humidity, 5% CO2), and subcultured twice per week through trypsinization. G317 patient-derived glioma cells were established by the Glioma Cellular Genetics Resource (gcgr.org.uk) funded by Cancer Research UK. Ethics approval for use of patient-derived cells and early access confirmation to reagents from the Glioma Cellular Genetics Resource assured that all ethical issues according to UK legislation are fulfilled. G317 were cultured in DMEM/HAMS-F12 (Sigma) supplemented with 1.5 g L^−1 D-(+)-Glucose (Sigma), MEM non-essential aminoacids (Gibco), 0.015% (w/v) Penicillin-Streptomycin (Gibco), 0.012% (w/v) BSA (Gibco), 0.1 mM β-mercaptoethanol (Gibco), B27 (Gibco) and N2 supplements (Gibco). Cells were detached using accutase solution (Sigma) and subcultured once per week. Before adding to the cells, medium was supplemented with 10 ng ml^−1 mouse EGF (Preprotech), 10 ng ml^−1 human FGF (Preprotech), and 1 µg ml^−1 Laminin (Sigma).
(§4) 1 × 10^3 U87 cells/well, 5 × 10^2 T98 cells/well, 1 × 10^4 G317 cells/well, 1 × 10^4 HBVP cells/well and 1 × 10^4 bEnd3 cells/well were seeded in 96-well plates. After 48 h in culture, cells were treated with the inhibitors for 5 d. For GI50 determination, the viability of a triplicate sample of each experiment before treatment was measured with the PrestoBlue Reagent (Invitrogen), to establish a basepoint 0% of growth. […] ZIP Synergy scores were obtained with Synergy finder.[22] Viability percentage, EC50 and GI50 values were obtained using GraphPad Prism version 8.0.0 for Windows, GraphPad Software, San Diego, California USA, www.graphpad.com.

[2] = tested on: T98 cells; assay: Cell viability assay (PrestoBlue, 5 d) in T98 glioma cells; type: cell-based; details: library screen, 5 d treatment, mean of three independent experiments in triplicates, read-out: EC50 T98 ± SEM
Procedure: as §1, §2, §3, §4

SMILES	EC50 [1] [µM]	EC50 [2] [µM]	EC50 ([1]; Homo sapiens, U-87 MG, 120 h) [µM]	EC50 ([2]; Homo sapiens, T98, 120 h) [µM]
Cc1ccc(-c2nn(CCN3CCN(CCN(C)C)CC3)c3ncnc(N)c23)cc1 [eCF105]	> 30	> 30		
Cc1ccc(-c2nn(CCN3CCC(O)CC3)c3ncnc(N)c23)cc1 [eCF106]	> 30	> 30		
Cc1ccc(-c2nn(CCN3CCC(CO)CC3)c3ncnc(N)c23)cc1 [eCF107]	> 30	> 30		
Cc1ccc(-c2nn(CCN3CCCCC3)c3ncnc(N)c23)cc1 [eCF111]	> 30	> 30		
CCOC(Cn1nc(-c2ccc3ncccc3c2)c2c(N)ncnc21)OCC [eCF203]	> 30	> 30		
CCOC(Cn1nc(-c2ccc(OC)c(OC)c2)c2c(N)ncnc21)OCC [eCF204]	> 30	> 30		
CCOC(Cn1nc(-c2cccc(O)c2)c2c(N)ncnc21)OCC [eCF205]	> 30	> 30		
CCOC(Cn1nc(-c2cccc(C(N)=O)c2)c2c(N)ncnc21)OCC [eCF208]	> 30	> 30		
CN(C)CC1CCN(CCn2nc(-c3ccc4[nH]ccc4c3)c3c(N)ncnc32)CC1 [eCF221]	18.7 ± 4.91	16.8 ± 3.66		
CN(C)CC1CCN(CCn2nc(-c3ccc4ncccc4c3)c3c(N)ncnc32)CC1 [eCF223]	> 30	> 30		
COc1ccc(-c2nn(CCN3CCC(CN(C)C)CC3)c3ncnc(N)c23)cc1OC [eCF224]	> 30	> 30		
CN(C)CC1CCN(CCn2nc(-c3cccc(O)c3)c3c(N)ncnc32)CC1 [eCF225]	> 30	> 30		
CN(C)CC1CCN(CCn2nc(-c3ccoc3)c3c(N)ncnc32)CC1 [eCF226]	> 30	> 30		
CN(C)CC1CCN(CCn2nc(C#Cc3ccccc3)c3c(N)ncnc32)CC1 [eCF230]	18.2 ± 1.2	13.7 ± 1.84		
COC(Cn1nc(-c2cnc3[nH]ccc3c2)c2c(N)ncnc21)OC [eCF308]			6.16 ± 1.22	7.34 ± 1.56
CN(C)C1CCN(CCn2nc(-c3cnc4[nH]ccc4c3)c3c(N)ncnc32)CC1 [eCF502]	15.2 ± 2.36	17.6 ± 3.93		
COc1cc(-c2nn(CCN3CCC(N(C)C)CC3)c3ncnc(N)c23)ccc1NC(=O)OC(C)(C)C [eCF506]			13.6 ± 0.809	9.97 ± 4.88
COc1cc(-c2nn(CCN3CCC(N4CCCC4)CC3)c3ncnc(N)c23)ccc1NC(=O)OC(C)(C)C [eCF518]	12 ± 0.168	3.48 ± 0.567		
COc1cc(-c2nn(CCN3CCC(N(C)C)CC3)c3ncnc(N)c23)ccc1NC(=O)CC(C)(C)C [eCF526]	> 30	> 30		

SMILES	EC50 [1] [µM]	EC50 [2] [µM]	EC50 ([1]; Homo sapiens, U-87 MG, 120 h) [µM]	EC50 ([2]; Homo sapiens, T98, 120 h) [µM]
COc1cc(-c2nn(CCN3CCC(N(C)C)CC3)c3ncnc(N)c23)ccc1NC(=O)Cc1ccccc1 [eCF530]	> 30	22.8 ± 3.21		
COc1cc(-c2nn(CCN3CCC(N(C)C)CC3)c3ncnc(N)c23)ccc1NC(=O)Oc1ccccc1 [eCF532]	29.2 ± 3.88	9.1 ± 1.37		
COc1cc(-c2nn(CCN3CCC(N(C)C)CC3)c3ncnc(N)c23)ccc1NC(=O)OCc1ccccc1 [eCF533]	8.22 ± 0.671	3.79 ± 0.519		
COc1cc(-c2nn(CCN3CCC(N(C)C)CC3)c3ncnc(N)c23)ccc1NC(=O)NC(C)(C)C [eCF537]	> 30	17.6 ± 3.24		
COc1cc(-c2nn(CCN3CCC(N(C)C)CC3)c3ncnc(N)c23)ccc1NC(=O)NC(C)(C)C [eCF540]	> 30	24.8 ± 2.68		
CN(C)C1CCN(CCn2nc(-c3cccc(NC(=O)OC(C)(C)C)c3)c3c(N)ncnc32)CC1 [eCF542]	> 30	> 30		
CN(C)C1CCN(CCn2nc(-c3ccc(CC(=O)OC(C)(C)C)cc3)c3c(N)ncnc32)CC1 [eCF553]	> 30	6.58 ± 2.18		
CN(C)C1CCN(CCn2nc(-c3ccc(CC(=O)O)cc3)c3c(N)ncnc32)CC1 [eCF556]	> 30	> 30		
COc1ccc(-c2nn(CCN3CCC(N(C)C)CC3)c3ncnc(N)c23)cc1NC(=O)OC(C)(C)C [eCF558]	> 30	> 30		
CN(C)C1CCN(CCn2nc(-c3ccc(NC(=O)OC(C)(C)C)c(O)c3)c3c(N)ncnc32)CC1 [eCF562]	> 30	> 30		
COc1cc(-c2nn(CCN3CCC(N(C)C)CC3)c3ncnc(N)c23)ccc1NCc1ccccc1 [eCF575]	> 30	> 30		
CN(C)C1CCN(CCn2nc(-c3ccc(NCc4ccccn4)cc3)c3c(N)ncnc32)CC1 [eCF576]	> 30	> 30		
COc1cc(-c2nn(CCN3CCC(N(C)C)CC3)c3ncnc(N)c23)ccc1NC(=O)OC(C)(C)C [eCF581]	> 30	> 30		
COc1cc(-c2nn(CCN3CCC(N4CCCC4)CC3)c3ncnc(N)c23)ccc1NC(=O)OC(C)(C)C [eCF598]	> 30	16.4 ± 9.53		
COc1cc(-c2nn(CCN3CCC(N4CCCCC4)CC3)c3ncnc(N)c23)ccc1NC(=O)OC(C)(C)C [eCF599]	> 30	23 ± 13.4		
CN(C)C1CCN(CCn2nc(-c3ccc(CC#N)cc3)c3c(N)ncnc32)CC1 [eCF600]	> 30	> 30		
COc1cc(-c2nn(CCN3CCCC(N(C)C)C3)c3ncnc(N)c23)ccc1NC(=O)OC(C)(C)C (stereo not shown) [eCF603]	> 30	> 30		
COc1cc(-c2nn(CCN3CCC(N(C)C)CC3)c3ncnc(N)c23)ccc1NC(=O)N(C)C(C)(C)C [eCF608]	21.1 ± 3.02	14.4 ± 7.53		

The remaining lines, values ahead:

EC50 [1] [µM]	EC50 [2] [µM]	EC50 ([1]; Homo sapiens, U-87 MG, 120 h) [µM]	EC50 ([2]; Homo sapiens, T98, 120 h) [µM]	SMILES
> 30	> 30			Cc1ccc(-c2nn(CCN3CCOCC3)c3ncnc(N)c23)cc1 [eCF102]
> 30	> 30			Cc1ccc(-c2nn(CCN3CCN(C)CC3)c3ncnc(N)c23)cc1 [eCF103]
> 30	> 30			Cc1ccc(-c2nn(CCN3CCN(CCO)CC3)c3ncnc(N)c23)cc1 [eCF104]
> 30	26.3 ± 7.3			Cc1ccc(-c2nn(CCN3CCC(N(C)C)CC3)c3ncnc(N)c23)cc1 [eCF109]
> 30	> 30			Cc1ccc(-c2nn(CCN3CCC(C)CC3)c3ncnc(N)c23)cc1 [eCF110]
6.63 ± 1.44	6.28 ± 1.91			Cc1ccc(-c2nn(CCN3CCC(CN(C)C)CC3)c3ncnc(N)c23)cc1 [eCF112]
6.74 ± 1.48	5.72 ± 1.95			Cc1ccc(-c2nn(CCN3CCC(CCN(C)C)CC3)c3ncnc(N)c23)cc1 [eCF113]
> 30	> 30			CCOC(Cn1nc(-c2ccoc2)c2c(N)ncnc21)OCC [eCF206]
> 30	> 30			CCOC(Cn1nc(-c2cccc(NC(=O)OC(C)(C)C)c2)c2c(N)ncnc21)OCC [eCF207]
> 30	> 30			CCOC(Cn1nc(-c2ccc(C(N)=O)cc2)c2c(N)ncnc21)OCC [eCF209]
11.3 ± 2.56	13.1 ± 2.65			Nc1ncnc2c1c(-c1cnc3[nH]ccc3c1)nn2CC1OCCO1 [eCF307]
20.3 ± 2.63	26.2			Nc1ncc(-c2ccc(-c3nn(CC4CCCC4)c4ncnc(N)c34)cc2)o1 [eCF341]
17 ± 2.37	3.14 ± 0.331			COc1cc(-c2nn(CCN3CCC(N4CCCCC4)CC3)c3ncnc(N)c23)ccc1NC(=O)OC(C)(C)C [eCF519]
22.6 ± 5.38	11.1 ± 1.1			COc1cc(-c2nn(CCN3CCC(N(C)C)CC3)c3ncnc(N)c23)ccc1NC(=O)CCc1ccccc1 [eCF531]
> 30	16.7 ± 2.8			COc1cc(-c2nn(CCN3CCC(N(C)C)CC3)c3ncnc(N)c23)ccc1NC(=O)Oc1ccccc1 [eCF535]
> 30	11.4 ± 1.44			CN(C)C1CCN(CCn2nc(-c3ccc(NC(=O)OC(C)(C)C)cc3)c3c(N)ncnc32)CC1 [eCF543]
7.18 ± 1.5	6.87 ± 1.77			CN(C)C1CCN(CCn2nc(-c3ccc4c(ccn4C(=O)OC(C)(C)C)c3)c3c(N)ncnc32)CC1 [eCF548]
> 30	> 30			CN(C)C1CCN(CCn2nc(-c3ccc(NC(=O)OC(C)(C)C)nc3)c3c(N)ncnc32)CC1 [eCF549]
> 30	17.5 ± 2.14			CNc1ncc2c(-c3ccc(OC)c(OC)c3)nn(CC3CCCC3)c2n1 [eSM104]
